Measurements from ChEMBL document CHEMBL1201862, “PubChem BioAssay data set” (2004).
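Five concentrations, 48 hours, 96-well plates. Here, GI50 denotes the concentration required for 50% inhibition of growth.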 The source made the active and inactive calls. Rule as the data show it: active = GI50 up to about 1.1 µM and inactive = higher.

Columns and labels:
Assay in all cases: NCI tumour cell line growth inhibition, 48 h
NCI-H522 = tested on: NCI-H522
TK-10 = tested on: TK-10
MCF7 = tested on: MCF7
SF-268 = tested on: SF-268
NCI-H460 = tested on: NCI-H460
UO-31 = tested on: UO-31
786-0 = tested on: 786-0
SN12C = tested on: SN12C
UACC-62 = tested on: UACC-62
SF-295 = tested on: SF-295
SK-MEL-5 = tested on: SK-MEL-5
SK-MEL-28 = tested on: SK-MEL-28
CAKI-1 = tested on: CAKI-1
UACC-257 = tested on: UACC-257
Malme-3M = tested on: Malme-3M
HL-60 = tested on: HL-60
HOP-62 = tested on: HOP-62
T47D = tested on: T47D
NCI-H226 = tested on: NCI-H226

Measured: GI50

C/C1=C\CC[C@@]2(C)O[C@@H]2[C@H]2OC(=O)C(C)C2C[C@H]1O (some centres not stated)
inactive: NCI-H522 > 100 µM | TK-10 > 100 µM | MCF7 > 100 µM | SF-268 > 100 µM | NCI-H460 > 100 µM | UO-31 > 100 µM | 786-0 > 100 µM | SN12C > 100 µM | UACC-62 > 100 µM | SF-295 > 100 µM | SK-MEL-5 22.5 µM | SK-MEL-28 > 100 µM | CAKI-1 > 100 µM | UACC-257 > 100 µM | Malme-3M > 100 µM

Clc1ccc(Cl)c(SCCCN2CCNCC2)c1
inactive: NCI-H522 16.3 µM | TK-10 16.5 µM | MCF7 18.4 µM | SF-268 16.6 µM | NCI-H460 18.4 µM | HL-60 14.2 µM | UO-31 14.4 µM | 786-0 20.1 µM | SN12C 19.2 µM | HOP-62 18 µM | UACC-62 2.61 µM | SF-295 17.8 µM | SK-MEL-5 15.2 µM | SK-MEL-28 10.4 µM | CAKI-1 17.8 µM | T47D 23.9 µM | UACC-257 11.7 µM | Malme-3M 15.8 µM | NCI-H226 18.3 µM

NNC(=S)N/N=C(\c1nc2ccc(Cl)cc2nc1O)C(O)c1cccc([N+](=O)[O-])c1 (configuration not stated)
inactive: NCI-H522 > 100 µM | TK-10 > 100 µM | SF-268 > 52.1 µM | NCI-H460 > 75 µM | HL-60 > 52.2 µM | UO-31 > 100 µM | 786-0 > 43 µM | SN12C 72.3 µM | HOP-62 > 38.9 µM | UACC-62 > 100 µM | SF-295 > 63.7 µM | SK-MEL-5 > 100 µM | SK-MEL-28 > 49 µM | CAKI-1 > 74.1 µM | UACC-257 > 100 µM | Malme-3M > 100 µM | NCI-H226 > 100 µM

COc1ccc(/C=C/C(=O)c2sc(-c3cccnc3)nc2C)cc1
inactive: NCI-H522 20.5 µM | TK-10 38.6 µM | SF-268 74.6 µM | NCI-H460 53.5 µM | HL-60 20.4 µM | UO-31 41.7 µM | 786-0 41.6 µM | SN12C 64.6 µM | HOP-62 63.7 µM | UACC-62 46.3 µM | SF-295 35.8 µM | SK-MEL-5 30.3 µM | SK-MEL-28 94 µM | CAKI-1 49.9 µM | UACC-257 > 100 µM | Malme-3M 62.8 µM | NCI-H226 23.8 µM

COC1=C(OC)C(=O)C(Cc2c(Cl)nc3sccn23)=C(C)C1=O
inactive: NCI-H522 6.15 µM | TK-10 12.9 µM | MCF7 10.2 µM | SF-268 14.5 µM | NCI-H460 12.8 µM | HL-60 2.42 µM | UO-31 10.6 µM | 786-0 16.7 µM | SN12C 13.4 µM | HOP-62 16.1 µM | UACC-62 5.2 µM | SF-295 12.4 µM | SK-MEL-5 4.14 µM | SK-MEL-28 12 µM | CAKI-1 14.3 µM | T47D 2.76 µM | UACC-257 3.32 µM | Malme-3M 1.85 µM

CCOC(=O)c1csc(CCCCCCc2nc(C(=O)OCC)cs2)n1
inactive: NCI-H522 > 100 µM | TK-10 > 92.5 µM | SF-268 34 µM | NCI-H460 29.7 µM | HL-60 > 48.3 µM | UO-31 > 100 µM | 786-0 33.2 µM | SN12C > 82.6 µM | HOP-62 > 57.1 µM | UACC-62 > 83.8 µM | SF-295 52.2 µM | SK-MEL-5 41.6 µM | SK-MEL-28 > 38.3 µM | CAKI-1 > 88.7 µM | UACC-257 34.8 µM | Malme-3M > 74.5 µM | NCI-H226 44.9 µM

COC(=O)[C@]1(C)CCC[C@@]2(C)C1CC[C@]13C=C(C(C)C)[C@H](CC21)CC3(Cl)C#N (some centres not stated)
inactive: NCI-H522 26.5 µM | TK-10 > 100 µM | MCF7 27.4 µM | SF-268 46.3 µM | NCI-H460 41.7 µM | UO-31 64.3 µM | 786-0 > 100 µM | SN12C 51.1 µM | HOP-62 36.3 µM | UACC-62 37.7 µM | SF-295 41.4 µM | SK-MEL-5 37.8 µM | SK-MEL-28 36.1 µM | CAKI-1 66.1 µM | T47D 14.1 µM | UACC-257 27.7 µM | Malme-3M 36.6 µM | NCI-H226 22.8 µM

O=C1C2=C(c3ccccc31)C(c1ccccc1Cl)NC(S)=N2 (configuration not stated)
inactive: NCI-H522 31.8 µM | TK-10 75.2 µM | SF-268 51.5 µM | NCI-H460 72.8 µM | HL-60 34 µM | UO-31 30.6 µM | 786-0 > 100 µM | SN12C 41.3 µM | HOP-62 > 100 µM | UACC-62 34.6 µM | SF-295 51.1 µM | SK-MEL-5 20.2 µM | SK-MEL-28 55.5 µM | CAKI-1 38.2 µM | UACC-257 51.3 µM | Malme-3M 39 µM | NCI-H226 8.65 µM

CC(=O)Nc1ccc(C2C(C(=O)Nc3ccccc3)=C(C)NC(C)=C2C(=O)Nc2ccccc2)cc1
inactive: NCI-H522 64 µM | TK-10 > 100 µM | SF-268 > 100 µM | NCI-H460 > 100 µM | HL-60 39.8 µM | UO-31 > 100 µM | 786-0 > 100 µM | SN12C > 100 µM | HOP-62 > 100 µM | UACC-62 > 80.5 µM | SF-295 > 100 µM | SK-MEL-5 > 100 µM | SK-MEL-28 > 100 µM | CAKI-1 > 100 µM | UACC-257 > 100 µM | Malme-3M > 100 µM | NCI-H226 > 100 µM

C=C1C(=O)OC2/C=C(\C=O)CC/C=C(\C)C(O)C[C@@H]12 (some centres not stated)
inactive: NCI-H522 1.54 µM | TK-10 12.3 µM | SF-268 8.61 µM | NCI-H460 13.3 µM | HL-60 2.86 µM | UO-31 13.3 µM | 786-0 2.85 µM | SN12C 7.52 µM | HOP-62 28.1 µM | UACC-62 5.87 µM | SF-295 13.7 µM | SK-MEL-5 9.27 µM | SK-MEL-28 4.42 µM | CAKI-1 > 10 µM | UACC-257 5.93 µM | Malme-3M 5.07 µM | NCI-H226 20.4 µM

C=CN(C=C)C(=O)Cn1cc(-c2ccccc2)nn1
inactive: NCI-H522 > 100 µM | TK-10 > 100 µM | MCF7 > 100 µM | SF-268 > 100 µM | NCI-H460 > 100 µM | HL-60 > 100 µM | 786-0 > 100 µM | SN12C > 100 µM | HOP-62 > 100 µM | SF-295 > 100 µM | SK-MEL-5 > 100 µM | SK-MEL-28 > 100 µM | CAKI-1 > 100 µM | UACC-257 > 100 µM | Malme-3M > 100 µM
